Test system: K98450-129-R-PDC complex spheroid growth, percent test/control
Test: Anticancer human tumor K98450-129-R-PDC patient-derived colon adenocarcinoma cell line growth inhibition [RAS]
Details: for IC50: curve of first compound; for viability, T/C: stronger effect = lower value
Method in brief: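 Tumour cells grown as complex spheroids with HUVEC endothelial cells and mesenchymal stem cells, treated with RAS pathway inhibitor combinations. Each agent spans half-log steps from near clinical Cmax, or 10 microM where Cmax is unknown.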
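Note: spheroids exposed to agents for seven days before the viability readout.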
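Throughout, for viability, T/C: luminescence used as a proxy for viable cell amount.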

Structure (SMILES): CC(Nc1ccc2c(c1)OCCn1cc(N3C(=O)OCC3C(F)F)nc1-2)C(N)=O (configuration not stated) + CCn1c(-c2cc(N3CCN(C)CC3)cnc2C(C)OC)c2c3cc(ccc31)-c1csc(n1)CC(NC(=O)C1CC1C)C(=O)N1CCCC(N1)C(=O)OCC(C)(C)C2
- IC50 (second compound 0.000949 µM): > 10 µM
- IC50 (second compound 0.003 µM): > 10 µM
- IC50 (second compound 0.00949 µM): > 10 µM
- IC50 (second compound 0.03 µM): < 0.0316 µM
- IC50 (second compound 0.0949 µM): < 0.0316 µM
- IC50 (second compound 0.3 µM): < 0.0316 µM
- viability, T/C (second compound 0.000949 µM, first compound 0.0316 µM): 93.6%
- viability, T/C (second compound 0.000949 µM, first compound 0.1 µM): 83.7%
- viability, T/C (second compound 0.000949 µM, first compound 0.316 µM): 86.7%
- viability, T/C (second compound 0.000949 µM, first compound 1 µM): 63.9%
- viability, T/C (second compound 0.000949 µM, first compound 3.16 µM): 70.4%
- viability, T/C (second compound 0.000949 µM, first compound 10 µM): 61.7%
- viability, T/C (second compound 0.003 µM, first compound 0.0316 µM): 84%
- viability, T/C (second compound 0.003 µM, first compound 0.1 µM): 81.1%
- viability, T/C (second compound 0.003 µM, first compound 0.316 µM): 75.2%
- viability, T/C (second compound 0.003 µM, first compound 1 µM): 67.5%
- viability, T/C (second compound 0.003 µM, first compound 3.16 µM): 68.4%
- viability, T/C (second compound 0.003 µM, first compound 10 µM): 61.3%
- viability, T/C (second compound 0.00949 µM, first compound 0.0316 µM): 73.8%
- viability, T/C (second compound 0.00949 µM, first compound 0.1 µM): 74.8%
- viability, T/C (second compound 0.00949 µM, first compound 0.316 µM): 60.5%
- viability, T/C (second compound 0.00949 µM, first compound 1 µM): 55.4%
- viability, T/C (second compound 0.00949 µM, first compound 3.16 µM): 54.8%
- viability, T/C (second compound 0.00949 µM, first compound 10 µM): 51%
- viability, T/C (second compound 0.03 µM, first compound 0.0316 µM): 38.4%
- viability, T/C (second compound 0.03 µM, first compound 0.1 µM): 48.4%
- viability, T/C (second compound 0.03 µM, first compound 0.316 µM): 42.3%
- viability, T/C (second compound 0.03 µM, first compound 1 µM): 35.4%
- viability, T/C (second compound 0.03 µM, first compound 3.16 µM): 33.8%
- viability, T/C (second compound 0.03 µM, first compound 10 µM): 26.8%
- viability, T/C (second compound 0.0949 µM, first compound 0.0316 µM): 17.5%
- viability, T/C (second compound 0.0949 µM, first compound 0.1 µM): 15.9%
- viability, T/C (second compound 0.0949 µM, first compound 0.316 µM): 16%
- viability, T/C (second compound 0.0949 µM, first compound 1 µM): 14.7%
- viability, T/C (second compound 0.0949 µM, first compound 3.16 µM): 10.8%
- viability, T/C (second compound 0.0949 µM, first compound 10 µM): 10.1%
- viability, T/C (second compound 0.3 µM, first compound 0.0316 µM): 10%
- viability, T/C (second compound 0.3 µM, first compound 0.1 µM): 10.2%
- viability, T/C (second compound 0.3 µM, first compound 0.316 µM): 9.37%
- viability, T/C (second compound 0.3 µM, first compound 1 µM): 8.15%
- viability, T/C (second compound 0.3 µM, first compound 3.16 µM): 7.17%
- viability, T/C (second compound 0.3 µM, first compound 10 µM): 4.8%

Source: PubChem BioAssay AID2060891 (Molecular Pharmacology Branch, DTP, NCI, 2025)
